Like-named read-outs stand apart in the source and are kept apart here.
What was measured:
[1] = tested on: A375; assay: 3-day CellTiter-Glo cell viability assay; assay type: cell-based; settings: read-out: GI50, drug alone
Description: (§1) To assess the growth/survival response of cell lines to single or combinatorial drug treatments in FIGS. 2-3 and FIGS. 20, 22, 28, 29, we used CellTiter-Glo cell viability assay (Promega; cat #G7571). Cell culture and luminescence readouts were performed in 96- and 384-well plates after 3-day treatments. Drug treatment conditions are described in the text. The effects of drug combinations on cell growth were assessed by calculating drug interaction (D.I.; two-way ANOVA using Prism or Sigma Plot software) and combination index (C.I.; following either the Loewe Additivity^6-9 or Bliss Independence models^[…]). […] We systematically tested the effects of drugs in both regular and low serum culture conditions (i.e. 5% and 0.25% FBS media). To quantitate cell death in FIG. 3 and FIGS. 28-29, FACS analysis of nuclear degradation was performed as previously described^13. Colony formation assay in FIG. 3 and FIG. 30 were performed as previously described^5.

[2] = tested on: Sk-Mel-28; assay: 3-day CellTiter-Glo cell viability assay; assay type: cell-based; settings: read-out: GI50, drug alone
Description: as §1

[3] = tested on: BRAF^V600E melanoma cell lines; assay: Growth response to drug combinations with VEM (Bliss combination index); assay type: cell-based; settings: A375 and Sk-Mel-28; VEM + 2nd drug
Source text: (a) Summary of possible cell responses to the combination of two drugs. The heatmap on the left represents the experimental effects of combining increasing concentrations of drug A+B as changes in cancer cell growth. The middle graph is a conceptual representation of how differences in effects of drugs alone or combined can be interpreted as either synergistic, additive, or antagonistic (derived from^10). The heatmap on the right represents the calculated combination index from all experimental cell growth data points. We decided to analyze experimental profiles using the Bliss Independence model to calculate combination indices (CI) and avoid inaccuracies from dose-effect curve estimations (CI=log 2 (Eab/(Ea*Eb); synergy CI<0; additivity CI=0; antagonism CI>0) 10-12. (b) Maps of cell growth responses (left) and combination indices (right). We tested the dependency of BRAF^V600E melanoma cell lines for kinases found as differentially active by HT-KAM in patient tumors (FIG. 26a,b). We included everolimus or trametinib (bottom two rows) as experimental ‘positive’ controls and for side-by-side comparison of the effects of other kinase-targeting drugs we tested. Arrows located above and on the left of each cell growth heatmaps serve as indicators of GI50 concentrations for each drug alone.
as §1

[4] = biological target: T1, AKT1 (Homo sapiens, UniProt P31749); assay: HT-KAM ATP-consumption kinase activity assay with inhibitors; assay type: biochemical; settings: control assays, data not shown
T1 construct: purchased SignalChem A16-10G

[5] = tested on: WiDr cells; assay: 3-day cell viability assay; assay type: cell-based; settings: Homo sapiens, 72 h, read-out: GI50 concentration
Source text: FIG. 20. Response of BRAF^V600E CRC cells to targeted therapy combinations. To validate the kinase activity signatures of VEM-resistant WiDr cells found by HT-KAM screen, and as a mean to assess the role of these kinases (AKT1, PDPK1, PRKCA, SGK1) as mediators of the response to VEM and their potential value as druggable vulnerabilities in our model, we used 3-day cell viability assays to monitor the response of cells to drug combinations.
as §1

[6] = tested on: A375 myrAKT1 cells; assay: 3-day cell viability assay, myrAKT1-expressing cells; assay type: cell-based; settings: myrAKT1-expressing vs control counterpart; p=2.77E-06
Source text: FIG. 29. A375 expressing a constitutively active AKT1 oncogenic kinase remain sensitive to RPS6KB- or PIM-targeting. We exogenously expressed myrAKT1 (i.e. a constitutively active oncogenic AKT1) in A375 cells. We then tested the sensitivity of A375 myrAKT1 cells to drug combinations.
as §1

[7] = tested on: M032R6.X1. CL; assay: 3-week colony formation assay; assay type: cell-based; settings: PDX-derived cell line with high RPS6KB1
Source text: (§2) (a-b) Phospho-RPS6KB profiles of two patient-derived xenografts (PDXs) tumor tissues (a) and related cell lines (b). PDXs were previously^4,5 established from patients refractory to BRAF^V600E-therapy. A limited number of primary cell lines were derived from these PDX's. (c) Sensitivity of primary melanoma cell lines to RPS6KB-inhibitor PF-4708671 in 3-week colony formation assays.
as §1

[8] = tested on: M061R.X1. CL; assay: 3-week colony formation assay; assay type: cell-based; settings: PDX-derived cell line without high RPS6KB1
Source text: as §2, §1

[9] = biological target: LCK (Homo sapiens, UniProt P06239); settings: literature reports; cited from earlier work
[10] = Homo sapiens, A-375, 72 h, 0.25% FBS media
[11] = Homo sapiens, A-375, 72 h, 5% FBS media
[12] = Homo sapiens, SK-MEL-28, 72 h, 0.25% FBS media
[13] = Homo sapiens, SK-MEL-28, 72 h, 5% FBS media

Chain of LCK (P06239 whole entry, species assumed): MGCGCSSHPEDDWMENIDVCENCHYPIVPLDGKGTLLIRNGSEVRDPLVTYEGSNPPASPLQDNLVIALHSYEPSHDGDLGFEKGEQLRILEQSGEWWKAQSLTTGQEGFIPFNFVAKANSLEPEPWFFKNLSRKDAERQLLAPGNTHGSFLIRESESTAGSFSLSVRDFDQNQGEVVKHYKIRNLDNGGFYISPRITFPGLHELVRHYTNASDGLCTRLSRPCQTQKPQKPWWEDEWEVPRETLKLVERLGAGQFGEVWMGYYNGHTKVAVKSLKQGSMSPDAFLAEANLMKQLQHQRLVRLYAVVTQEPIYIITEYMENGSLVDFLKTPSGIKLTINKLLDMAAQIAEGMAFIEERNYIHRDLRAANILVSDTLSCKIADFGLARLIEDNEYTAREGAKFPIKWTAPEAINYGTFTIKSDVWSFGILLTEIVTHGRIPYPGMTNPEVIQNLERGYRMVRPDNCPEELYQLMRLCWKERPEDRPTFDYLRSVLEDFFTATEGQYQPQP
T1 sequence (P31749 whole entry): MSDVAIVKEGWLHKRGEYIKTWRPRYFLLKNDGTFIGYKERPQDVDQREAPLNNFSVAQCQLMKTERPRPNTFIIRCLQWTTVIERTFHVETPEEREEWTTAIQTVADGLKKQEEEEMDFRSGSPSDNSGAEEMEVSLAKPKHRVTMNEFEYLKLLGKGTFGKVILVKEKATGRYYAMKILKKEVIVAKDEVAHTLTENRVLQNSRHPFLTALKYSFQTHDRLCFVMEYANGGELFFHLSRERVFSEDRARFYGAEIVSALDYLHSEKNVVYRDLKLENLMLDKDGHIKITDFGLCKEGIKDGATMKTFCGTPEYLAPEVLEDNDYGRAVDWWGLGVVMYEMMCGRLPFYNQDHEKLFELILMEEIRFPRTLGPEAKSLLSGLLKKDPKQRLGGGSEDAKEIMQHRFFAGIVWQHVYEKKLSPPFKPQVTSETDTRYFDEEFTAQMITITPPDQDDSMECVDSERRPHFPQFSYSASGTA

SMILES | GI50 ([1]; 0.25% FBS media) [µM] | GI50 ([1]; 5% FBS media) [µM] | GI50 ([2]; 0.25% FBS media) [µM] | GI50 ([2]; 5% FBS media) [µM] | effect of combination with VEM on cell growth / combination index [3] | GI50 [1, 10] [µM] | GI50 [1, 11] [µM] | GI50 [2, 12] [µM] | GI50 [2, 13] [µM] | other results
O=C1Cc2c([nH]c3ccc(Br)cc23)-c2ncccc2N1 [1-Azakenpaullone] | 2.5 | 20 | 10 | 20 | antagonizing the effects of VEM treatment |  |  |  |  | 
Cn1cc(-c2ccc(F)c(C(F)(F)F)c2)nc1C1CCN(c2ncnc3[nH]ncc23)CC1 [LY2584702] |  |  |  |  | strong growth inhibitory effects | > 200 | 50 | 100 | 100 | 
NC1(c2ccc(-c3nc4ccn5c(=O)[nH]nc5c4cc3-c3ccccc3)cc2)CCC1 [MK2206] |  |  |  |  |  | 2.5 | 10 | 5 | 2.5 | effect on AKT1 activity [4]: effectively decreased AKT1 activity
CCCS(=O)(=O)Nc1ccc(F)c(C(=O)c2c[nH]c3ncc(-c4ccc(Cl)cc4)cc23)c1F [VEM, vemurafenib] |  |  |  |  |  | 0.02 | 0.15 | 0.31 | 0.63 | GI50 [5]: 2000 nM; increase in GI50 versus control A375 [6]: 65%
N[C@@H]1CCCN(c2c(/C=C3\SC(=O)NC3=O)cccc2-c2ccccc2)C1 [AZD1208] | 12.5 | 12.5 | 25 | 25 | strong growth inhibitory effects |  |  |  |  | 
CCc1cncnc1N1CCN(Cc2nc3ccc(C(F)(F)F)cc3[nH]2)CC1 [PF-4708671] | 16 | 32 | 16 | 32 | strong growth inhibitory effects |  |  |  |  | sensitivity in colony formation [7]: sensitive; sensitivity in colony formation [8]: not sensitive
CN(C)S(=O)(=O)c1ccc2c(c1)/C(=C/c1cc3c([nH]1)CCCC3)C(=O)N2 [SU6656] |  |  |  |  |  |  |  |  |  | IC50 [9]: > 5 µM
CC(C)CCN1c2nc(Nc3cc(F)c(O)c(F)c3)ncc2N(C)C(=O)C1C (stereo not shown) [BI-D1870] | > 50 | 12.5 | 12.5 | 25 | additive effects only |  |  |  |  | 
CN1CCN(c2nc(C3=C(c4c[nH]c5ccccc45)C(=O)NC3=O)c3ccccc3n2)CC1 [Sotrastaurin, sotrastaurin] |  |  |  |  | limited additivity effects |  |  |  |  | 
CC(=O)Nc1cccc(-n2c(=O)n(C3CC3)c(=O)c3c(Nc4ccc(I)cc4F)n(C)c(=O)c(C)c32)c1 [trametinib] |  |  |  |  |  | 0.0025 | 0.005 | 0.01 | 0.01 | 
CO[C@H]1C[C@@H]2CC[C@@H](C)[C@@](O)(O2)C(=O)C(=O)N2CCCC[C@H]2C(=O)O[C@H]([C@H](C)C[C@@H]2CC[C@@H](OCCO)[C@H](OC)C2)CC(=O)[C@H](C)/C=C(\C)[C@@H](O)[C@@H](OC)C(=O)[C@H](C)C[C@H](C)/C=C/C=C/C=C/1C [everolimus] |  |  |  |  |  | 10 | 5 | 10 | 10 | 
COc1ccc2c(c1)c(C1=C(c3c[nH]c4ccccc34)C(=O)NC1=O)cn2CCCN(C)C [Go6983] |  |  |  |  | limited additivity effects |  |  |  |  | 

Source: patent US20210333285A1, “DETECTION OF PHOSPHOKINASE SIGNATURES” (The Regents of the University of California, priority 2018, published 2021)
